This passage reports IC50 results from patent US8071810B2, “C5a receptor antagonists” (Jerini AG, priority 2005, dated 2011).

SMILES strings stand for the structures. pIC50: −log10 of the molar value.

One may read the pIC50 as −log10 of the IC50, conventionally taken in molar units.

The first assay has as its target T1, human C5a receptor (CD88) (Homo sapiens, UniProt P21730).
T1 construct: expressed in transfected cells; host or cells: rat basophilic leukemia (RBL) cells, stably transfected
T1 sequence (P21730 1-350): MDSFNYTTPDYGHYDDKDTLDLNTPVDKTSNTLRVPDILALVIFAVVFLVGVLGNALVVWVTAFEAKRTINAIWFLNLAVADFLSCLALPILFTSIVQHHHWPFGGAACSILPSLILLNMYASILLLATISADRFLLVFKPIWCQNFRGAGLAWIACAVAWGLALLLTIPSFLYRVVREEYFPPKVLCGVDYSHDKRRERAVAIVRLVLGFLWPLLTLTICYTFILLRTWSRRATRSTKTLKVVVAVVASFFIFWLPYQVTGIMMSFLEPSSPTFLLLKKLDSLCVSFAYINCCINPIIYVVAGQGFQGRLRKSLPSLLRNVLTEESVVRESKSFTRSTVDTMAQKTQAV
Kind of assay: C5a induced enzyme (glucosaminidase) release assay in RBL cells expressing the human C5a receptor (Example 28). It is filed as cell-based. To be noted: RBL cells with human C5aR; read-out: IC50 for the inhibition of C5a induced enzyme release. On the procedure:
Basophile leukemia cells from rats (RBL), which express the human C5a receptor (CD88), are cultivated in DMEM with 10% fetal calf serum, 100 U/ml penicillin, 100 μg/ml streptomycin and 2 mM glutamin (all constituents are from Biochrome, Berlin) at 37° C. and with 10% CO2 until a confluent layer is obtained. All following details refer to a tissue culture flask with 75 cm^2 surface. The used up medium is removed. The cells are washed with 10 ml PBS (Dulbecco's PBS, Biochrome) and then covered with 3 ml cell dissociation solution (CDS, Sigma). The cells are incubated for 1 minute at room temperature. Then the CDS is removed and the cells are incubated for further 10-15 minutes at 37° C. to detach the cells completely from the flask. 20 μl solution of the compound to be testet are used in the assay. […] The dilution series are prepared in ⅓ or ½ steps. […] The cells are counted and centrifuged (200 g, 10 min). The cell pellet is taken up with pre-heated HAG-CM, and the cell density is adjusted to 2×10^6 Zellen/ml. The cells are incubated for 5 minutes at 37° C. 2.7 μl of a cytochalasin B solution (1000 μg/ml in DMSO, Sigma) are added per ml cell suspension. The Zellen are incubated for another 3 min at 37° C. Then, 75 μl of the cell suspension are added to the 20 μl solution containing the compounds to be tested. […] The cells are again incubated for 10 minutes at 37° C. […] After this the plates are put on ice and centrifuged for 3 minutes at 1200×g and 4° C. […] The plate is incubated for 1 hour at 37° C. […] The IC50 value is determined by solving the four parameter equation y=((A−D)/(1+(x/C)^B))+D.
`CCc1c(N)cc(Cl)c(CC)c1NC(=O)N(c1ccc(C(C)C)cc1)[C@@H](C)c1ccc(F)cc1` [compound 81, (S)-3-(3-amino-5-chloro-2,6-diethyl-phenyl)-1-[1-(4-fluor-phenyl)-ethyl]-1-(4-isopropyl-phenyl)-urea]: the negative-log IC50 (pIC50) is 7.42.

Staying with this assay, now noted: inhibition of C5a induced enzyme release, RBL cells with human C5aR; read-out: Activity-range (antagonistic activity, IC50 enzyme release).
As to `CCc1c(N)cc(Cl)c(CC)c1NC(=O)N(Cc1cnc(C)cn1)c1ccc(C(C)C)cc1` [compound 75, 3-(3-amino-5-chloro-2,6-diethyl-phenyl)-1-(4-isopropyl-phenyl)-1-(5-methyl-pyrazin-2-ylmethyl)-urea], the pIC50 was 6.70 to 7.22.

On to `CCc1c(N)cc(Cl)c(CC)c1NC(=O)N(Cc1ccc(C)nc1)c1ccc(C(C)C)cc1` [compound 76, 3-(3-amino-5-chloro-2,6-diethyl-phenyl)-1-(4-isopropyl-phenyl)-1-(6-methyl-pyridin-3-ylmethyl)-urea], for which the negative logarithm of the IC50 (pIC50) is 6.70 to 7.22.

Regarding `CCc1c(N)cc(Cl)c(CC)c1NC(=O)N(Cc1cnc(OC)nc1OC)c1ccc(C(C)C)cc1` [compound 77, 3-(3-amino-5-chloro-2,6-diethyl-phenyl)-1-(2,4-dimethoxy-pyrimidin-5-ylmethyl)-1-(4-isopropyl-phenyl)-urea], the pIC50 was 5.30 to 6.70.

With `CCc1c(N)cc(Cl)c(CC)c1NC(=O)N(c1ccc(C(C)C)cc1)[C@@H](C)c1ccc(Cl)cc1` [compound 78, (S)-3-(3-amino-5-chloro-2,6-diethyl-phenyl)-1-[1-(4-chlor-phenyl)-ethyl]-1-(4-isopropyl-phenyl)-urea], the pIC50 was above 7.22.

As for `Cc1ccc([C@H](C)N(C(=O)Nc2c(C)c(N)cc(Cl)c2C)c2ccc(C(C)C)cc2)cc1` [compound 79, (S)-3-(3-amino-5-chloro-2,6-dimethyl-phenyl)-1-(4-isopropyl-phenyl)-1-(1-p-tolyl-ethyl)-urea], the pIC50 was 5.30 to 6.70.

Take `CCc1ccc(N(C(=O)Nc2c(CC)c(N)cc(Cl)c2CC)[C@@H](C)c2ccc(F)cc2)cc1` [compound 82, (S)-3-(3-amino-5-chloro-2,6-diethyl-phenyl)-1-(4-ethyl-phenyl)-1-[1-(4-fluoro-phenyl)-ethyl]-urea]: the negative logarithm of the IC50 (pIC50) was 6.70 to 7.22.

Regarding `CCc1c(N)cc(Cl)c(CC)c1NC(=O)N(c1ccc(SC)cc1)[C@@H](C)c1ccc(Cl)cc1` [compound 83, (S)-3-(3-amino-5-chloro-2,6-diethyl-phenyl)-1-[1-(4-chloro-phenyl)-ethyl]-1-(4-methylsulfanyl-phenyl)-urea], the pIC50 is 6.70 to 7.22.

Take `CCc1c(N)cc(Cl)c(CC)c1NC(=O)N(c1ccc(C(C)C)cc1)C1CCc2ccccc21` (stereo not shown) [compound 84, 3-(3-amino-5-chloro-2,6-diethyl-phenyl)-1-indane-1-yl-1-(4-isopropyl-phenyl)-urea]: the pIC50 was 5.30 to 6.70.

With `C#Cc1ccc(N(Cc2ccc(OC)cc2)C(=O)Nc2c(CC)c(N)cc(Cl)c2CC)cc1` [compound 85, 3-(3-amino-5-chloro-2,6-diethyl-phenyl)-1-(4-ethynyl-phenyl)-1-(4-methoxy-benzyl)-urea], the negative logarithm of the IC50 (pIC50) was 5.30 to 6.70.

Turning to `CCc1c(N)cc(Cl)c(CC)c1NC(=O)N(c1ccc(Cl)cc1)[C@@H](C)c1ccc(Cl)cc1` [compound 86, (S)-3-(3-amino-5-chloro-2,6-diethyl-phenyl)-1-(4-chlor-phenyl)-1-[1-(4-chloro-phenyl)-ethyl]-urea], the pIC50 is 5.30 to 6.70.

Turning to `CCc1c(N)cc(Cl)c(CC)c1NC(=O)N(Cc1ccc(C(F)(F)F)nc1)c1ccc(C(C)C)cc1` [compound 87, 3-(3-amino-5-chloro-2,6-diethyl-phenyl)-1-(4-isopropyl-phenyl)-1-(6-trifluoromethyl-pyridin-3-ylmethyl)-urea], the pIC50 was 5.30 to 6.70.

Regarding `CCc1c(N)cc(Cl)c(CC)c1NC(=O)N(c1ccc(C(C)C)cc1)C1CCOc2ccccc21` (stereo not shown) [compound 89, 3-(3-amino-5-chloro-2,6-diethyl-phenyl)-1-chroman-4-yl-1-(4-isopropyl-phenyl)-urea], the pIC50 was 5.30 to 6.70.

As to `CCc1ccc(N)c(CC)c1NC(=O)N(c1ccc(C(C)C)cc1)C1CCc2ccccc21` (stereo not shown) [compound 90, 3-(3-amino-2,6-diethyl-phenyl)-1-indane-1-yl-1-(4-isopropyl-phenyl)-urea], the pIC50 is 5.30 to 6.70.

`CCc1ccc(N(Cc2cnn(CC)c2)C(=O)Nc2c(CC)c(N)cc(Cl)c2CC)cc1` [compound 91, 3-(3-amino-5-chloro-2,6-diethyl-phenyl)-1-(4-ethyl-phenyl)-1-(1-ethyl-1H-pyrazol-4-ylmethyl)-urea]: the negative-log IC50 (pIC50) was 5.30 to 6.70.

With `CCc1c(N)cc(Cl)c(CC)c1NC(=O)N(c1ccc(OC)cc1)[C@@H](C)c1ccc(Cl)cc1` [compound 92, (S)-3-(3-amino-5-chloro-2,6-diethyl-phenyl)-1-[1-(4-chloro-phenyl)-ethyl]-1-(4-methoxy-phenyl)-urea], the negative logarithm of the IC50 (pIC50) is 6.70 to 7.22.

For `CCc1c(N)cc(Cl)c(CC)c1NC(=O)N(Cc1ccc(Cl)cc1)c1ccc(SC(F)(F)F)cc1` [compound 93, 3-(3-amino-5-chloro-2,6-diethyl-phenyl)-1-(4-chloro-benzyl)-1-(4-trifluoromethylsulfanyl-phenyl)-urea], the negative logarithm of the IC50 (pIC50) was 5.30 to 6.70.

Turning to `CCc1c(N)cc(Cl)c(CC)c1NC(=O)N(c1ccc(OC)c(F)c1)[C@@H](C)c1ccc(Cl)cc1` [compound 94, (S)-3-(3-amino-5-chloro-2,6-diethyl-phenyl)-1-[1-(4-chloro-phenyl)-ethyl]-1-(3-fluoro-4-methoxy-phenyl)-urea], the pIC50 is above 7.22.

Take `CCc1c(N)cc(Cl)c(CC)c1NC(=O)N(c1ccc([S+](C)[O-])cc1)[C@@H](C)c1ccc(Cl)cc1` (stereo partly drawn) [compound 95, (S)-3-(3-amino-5-chloro-2,6-diethyl-phenyl)-1-[1-(4-chloro-phenyl)-ethyl]-1-(4-methanesulfinyl-phenyl)-urea]: the pIC50 is 5.30 to 6.70.

With `CCc1ccc(N(Cc2ccc(F)cc2)C(=O)Nc2c(CC)c(N)cc(Cl)c2CC)cc1` [compound 96, 3-(3-amino-5-chloro-2,6-diethyl-phenyl)-1-(4-ethyl-phenyl)-1-(4-fluoro-benzyl)-urea], the negative logarithm of the IC50 (pIC50) was 6.70 to 7.22.

For the compound `CCc1ccc(N(Cc2ccc(Br)cc2)C(=O)Nc2c(CC)c(N)cc(Cl)c2CC)cc1` [compound 99, 3-(3-amino-5-chloro-2,6-diethyl-phenyl)-1-(4-bromo-benzyl)-1-(4-ethyl-phenyl)-urea], the pIC50 was above 7.22.

`CCc1c(N)cc(Cl)c(CC)c1NC(=O)N(c1ccc(C(C)C)cc1)C1CCSc2ccccc21` (stereo not shown) [compound 101, 3-(3-amino-5-chloro-2,6-diethyl-phenyl)-1-(4-isopropyl-phenyl)-1-thiochroman-4-yl-urea]: the pIC50 is 5.30 to 6.70.

For the compound `CCc1ccc(N(C(=O)Nc2c(CC)c(N)cc(Cl)c2CC)C2CCc3cc(Cl)ccc32)cc1` (stereo not shown) [compound 104, 3-(3-amino-5-chloro-2,6-diethyl-phenyl)-1-(5-chloro-indane-1-yl)-1-(4-ethyl-phenyl)-urea], the pIC50 is 6.70 to 7.22.

Regarding `CCc1c(N)cc(Cl)c(CC)c1NC(=O)N(Cc1ccc(Cl)cn1)c1ccc(C(C)C)cc1` [compound 105, 3-(3-amino-5-chloro-2,6-diethyl-phenyl)-1-(5-chloro-pyridin-2-ylmethyl)-1-(4-isopropyl-phenyl)-urea], the pIC50 is 5.30 to 6.70.

Regarding `CCc1ccc(N(Cc2ccc(C)nc2)C(=O)Nc2c(CC)ccc(N)c2CC)cc1` [compound 107, 3-(3-amino-2,6-diethyl-phenyl)-1-(4-ethyl-phenyl)-1-(6-methyl-pyridin-3-ylmethyl)-urea], the negative-log IC50 (pIC50) was 5.30 to 6.70.

As for `CCc1c(N)cc(Cl)c(CC)c1NC(=O)N(Cc1ccc(Cl)cc1)c1cccc2ccccc12` [compound 108, 3-(3-amino-5-chloro-2,6-diethyl-phenyl)-1-(4-chloro-benzyl)-1-naphthaline-1-yl-urea], the pIC50 was 5.30 to 6.70.

As to `CCc1c(N)cc(Cl)c(CC)c1NC(=O)N(c1ccc(OC)cc1CO)[C@@H](C)c1ccc(Cl)cc1` [compound 109, (S)-3-(3-amino-5-chloro-2,6-diethyl-phenyl)-1-[1-(4-chloro-phenyl)-ethyl]-1-(2-hydroxymethyl-4-methoxy-phenyl)-urea], the negative logarithm of the IC50 (pIC50) was 5.30 to 6.70.

With `CCc1ccc(N(Cc2ccc(-n3cccn3)cc2)C(=O)Nc2c(CC)c(N)cc(Cl)c2CC)cc1` [compound 110, 3-(3-amino-5-chloro-2,6-diethyl-phenyl)-1-(4-ethyl-phenyl)-1-(4-pyrazol-1-yl-benzyl)-urea], the negative-log IC50 (pIC50) is 5.30 to 6.70.
